This note sets out measurements from ChEMBL document CHEMBL5465560, “Selectivity Literature for EUbOPEN Chemogenomic Library” (2024).

As a reminder, the pIC50 is the IC50 on a negative log10 scale, so that one unit is a factor of ten. The low end stands for a high IC50, the high end for a low IC50.

Assay [1] concerns the target Vascular endothelial growth factor receptor 2 (Homo sapiens, UniProt P35968). As to the kind of experiment: Selectivity interaction (Upstate Kinase Profiler service (Millipore)) EUB0000056c KDR. As to conditions: at 1 µM.
In assay [2] the target is Macrophage colony-stimulating factor 1 receptor (Homo sapiens) (UniProt P07333). As to the kind of experiment: Selectivity interaction (Ambit KINOMEscan and KiNATiv profiling in Jurkat cells) EUB0000090b CSF1R. Format: cell-based. As to conditions: at 1 µM.
Chain of Macrophage colony-stimulating factor 1 receptor (Homo sapiens) (P07333 whole entry): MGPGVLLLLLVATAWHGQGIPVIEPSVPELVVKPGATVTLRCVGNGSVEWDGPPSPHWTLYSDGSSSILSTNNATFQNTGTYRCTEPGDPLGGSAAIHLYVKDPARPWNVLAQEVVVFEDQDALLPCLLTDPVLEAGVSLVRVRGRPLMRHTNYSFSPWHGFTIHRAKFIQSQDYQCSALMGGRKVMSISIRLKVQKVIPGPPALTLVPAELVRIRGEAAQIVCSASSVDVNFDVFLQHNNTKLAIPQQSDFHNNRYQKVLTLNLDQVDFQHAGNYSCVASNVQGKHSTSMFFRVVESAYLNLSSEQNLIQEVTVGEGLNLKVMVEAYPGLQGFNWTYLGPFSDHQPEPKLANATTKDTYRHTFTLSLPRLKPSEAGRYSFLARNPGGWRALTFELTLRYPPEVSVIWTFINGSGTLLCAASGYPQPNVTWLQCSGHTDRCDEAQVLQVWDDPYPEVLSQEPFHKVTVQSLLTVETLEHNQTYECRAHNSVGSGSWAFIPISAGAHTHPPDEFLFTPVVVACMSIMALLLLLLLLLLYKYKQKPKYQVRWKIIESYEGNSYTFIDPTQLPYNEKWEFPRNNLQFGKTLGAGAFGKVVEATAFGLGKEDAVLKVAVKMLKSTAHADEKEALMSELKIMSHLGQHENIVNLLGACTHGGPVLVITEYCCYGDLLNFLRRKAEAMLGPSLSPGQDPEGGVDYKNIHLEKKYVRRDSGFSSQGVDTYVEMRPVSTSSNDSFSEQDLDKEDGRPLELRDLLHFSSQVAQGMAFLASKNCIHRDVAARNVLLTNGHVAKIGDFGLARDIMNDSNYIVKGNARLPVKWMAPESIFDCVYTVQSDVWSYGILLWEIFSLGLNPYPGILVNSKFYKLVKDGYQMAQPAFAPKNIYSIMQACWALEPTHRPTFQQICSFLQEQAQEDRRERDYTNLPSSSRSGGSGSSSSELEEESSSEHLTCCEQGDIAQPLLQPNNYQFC
Assay [3] deals with MAP kinase-activated protein kinase 2 (Homo sapiens, UniProt P49137). As to the kind of experiment: Selectivity interaction (Millipore kinase profiler) EUB0000124b MAPKAPK2. The note with it: at 10 µM.
Chain of MAP kinase-activated protein kinase 2 (P49137 whole entry, looked up): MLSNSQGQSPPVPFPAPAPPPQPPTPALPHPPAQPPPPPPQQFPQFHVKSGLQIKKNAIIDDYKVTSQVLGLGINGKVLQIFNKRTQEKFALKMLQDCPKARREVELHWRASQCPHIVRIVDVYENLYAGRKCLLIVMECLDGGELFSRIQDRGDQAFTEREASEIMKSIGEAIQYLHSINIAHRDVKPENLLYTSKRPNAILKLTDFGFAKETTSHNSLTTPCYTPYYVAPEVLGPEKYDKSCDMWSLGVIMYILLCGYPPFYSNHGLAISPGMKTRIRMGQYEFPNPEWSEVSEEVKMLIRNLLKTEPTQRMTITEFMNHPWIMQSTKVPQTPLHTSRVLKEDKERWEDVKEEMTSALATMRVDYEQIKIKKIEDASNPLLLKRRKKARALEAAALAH
In assay [4] the target is T1, Serine/threonine-protein kinase ULK3 (Homo sapiens) (UniProt Q6PHR2).
T1 sequence (whole entry): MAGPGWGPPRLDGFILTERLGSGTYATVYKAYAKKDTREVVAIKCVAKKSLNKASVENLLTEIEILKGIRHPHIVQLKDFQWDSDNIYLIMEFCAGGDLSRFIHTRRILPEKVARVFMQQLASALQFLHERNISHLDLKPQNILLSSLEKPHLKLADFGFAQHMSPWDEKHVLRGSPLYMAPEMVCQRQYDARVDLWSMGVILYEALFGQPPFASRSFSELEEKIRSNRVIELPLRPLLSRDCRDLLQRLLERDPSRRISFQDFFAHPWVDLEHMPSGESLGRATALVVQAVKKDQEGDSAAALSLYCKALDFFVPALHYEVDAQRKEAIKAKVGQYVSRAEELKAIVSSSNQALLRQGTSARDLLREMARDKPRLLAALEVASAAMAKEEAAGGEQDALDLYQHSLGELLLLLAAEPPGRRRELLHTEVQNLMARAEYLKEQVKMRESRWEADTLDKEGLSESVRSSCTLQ
In words: Selectivity interaction (KinomeScan (DiscoverX)) EUB0001049a ULK3. The note with it: at 1 µM.

Assay [5] concerns the target Cyclin-dependent kinase 17 (Homo sapiens) (UniProt Q00537). In words: Selectivity interaction (KinomeScan (DiscoverX)) EUB0000695a CDK17. As to conditions: at 100 nM.
Assay [6] deals with Serine/threonine-protein kinase PLK3 (Homo sapiens, UniProt Q9H4B4). In words: Selectivity interaction (KinomeScan (DiscoverX)) EUB0000045b PLK3.
Chain of Serine/threonine-protein kinase PLK3 (Q9H4B4 whole entry, looked up): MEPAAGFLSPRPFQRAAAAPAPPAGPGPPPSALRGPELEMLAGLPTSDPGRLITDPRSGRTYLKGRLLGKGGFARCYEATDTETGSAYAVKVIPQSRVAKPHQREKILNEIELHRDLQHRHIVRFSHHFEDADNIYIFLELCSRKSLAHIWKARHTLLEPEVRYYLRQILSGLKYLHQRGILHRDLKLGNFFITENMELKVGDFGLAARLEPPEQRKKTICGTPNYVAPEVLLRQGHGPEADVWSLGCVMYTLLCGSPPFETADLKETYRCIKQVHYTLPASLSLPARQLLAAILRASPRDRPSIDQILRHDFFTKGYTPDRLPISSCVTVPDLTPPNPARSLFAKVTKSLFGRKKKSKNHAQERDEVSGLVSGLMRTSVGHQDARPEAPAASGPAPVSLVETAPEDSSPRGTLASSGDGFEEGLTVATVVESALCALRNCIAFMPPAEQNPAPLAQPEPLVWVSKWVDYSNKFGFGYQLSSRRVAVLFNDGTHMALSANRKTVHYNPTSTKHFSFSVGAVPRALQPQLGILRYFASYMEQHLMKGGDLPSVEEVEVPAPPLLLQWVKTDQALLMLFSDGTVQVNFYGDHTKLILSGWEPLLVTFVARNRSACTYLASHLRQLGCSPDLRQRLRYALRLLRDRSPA
The target in assay [7] is Serine/threonine-protein kinase N1 (Homo sapiens, UniProt Q16512). In words: Selectivity interaction (KinomeScan (DiscoverX)) EUB0000666a PKN1. The note with it: at 10 µM.
Chain of Serine/threonine-protein kinase N1 (Q16512 2-942 limits assumed): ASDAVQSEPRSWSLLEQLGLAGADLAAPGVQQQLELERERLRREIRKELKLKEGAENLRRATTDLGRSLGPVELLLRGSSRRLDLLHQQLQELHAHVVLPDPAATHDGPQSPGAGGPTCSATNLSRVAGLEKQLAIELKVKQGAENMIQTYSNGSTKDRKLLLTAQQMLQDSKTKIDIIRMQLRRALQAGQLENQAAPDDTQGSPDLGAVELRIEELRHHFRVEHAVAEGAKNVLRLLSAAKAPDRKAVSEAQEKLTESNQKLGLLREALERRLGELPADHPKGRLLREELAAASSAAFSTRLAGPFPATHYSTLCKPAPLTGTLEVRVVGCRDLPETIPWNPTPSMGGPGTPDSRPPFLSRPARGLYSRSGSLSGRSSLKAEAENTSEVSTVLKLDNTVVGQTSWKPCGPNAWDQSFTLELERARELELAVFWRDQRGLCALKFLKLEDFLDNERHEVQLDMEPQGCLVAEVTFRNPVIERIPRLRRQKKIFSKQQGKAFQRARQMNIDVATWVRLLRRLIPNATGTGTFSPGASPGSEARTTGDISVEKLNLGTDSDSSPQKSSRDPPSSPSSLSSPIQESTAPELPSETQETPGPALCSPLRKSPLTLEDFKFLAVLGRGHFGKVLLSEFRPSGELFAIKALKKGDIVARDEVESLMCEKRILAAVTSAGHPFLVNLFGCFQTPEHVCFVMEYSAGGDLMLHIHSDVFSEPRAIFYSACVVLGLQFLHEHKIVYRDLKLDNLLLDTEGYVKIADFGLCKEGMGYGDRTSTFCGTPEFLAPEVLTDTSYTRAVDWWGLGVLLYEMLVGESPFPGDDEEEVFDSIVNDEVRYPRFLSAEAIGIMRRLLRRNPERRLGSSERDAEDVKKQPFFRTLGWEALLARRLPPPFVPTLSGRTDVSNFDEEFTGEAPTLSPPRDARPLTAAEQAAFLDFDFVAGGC
The target in assay [8] is Tyrosine-protein kinase receptor UFO (Homo sapiens) (UniProt P30530). As to the kind of experiment: Selectivity interaction (KinomeScan (DiscoverX)) EUB0000666a AXL. The note with it: at 10 µM.
Chain of Tyrosine-protein kinase receptor UFO (Homo sapiens) (P30530 whole entry): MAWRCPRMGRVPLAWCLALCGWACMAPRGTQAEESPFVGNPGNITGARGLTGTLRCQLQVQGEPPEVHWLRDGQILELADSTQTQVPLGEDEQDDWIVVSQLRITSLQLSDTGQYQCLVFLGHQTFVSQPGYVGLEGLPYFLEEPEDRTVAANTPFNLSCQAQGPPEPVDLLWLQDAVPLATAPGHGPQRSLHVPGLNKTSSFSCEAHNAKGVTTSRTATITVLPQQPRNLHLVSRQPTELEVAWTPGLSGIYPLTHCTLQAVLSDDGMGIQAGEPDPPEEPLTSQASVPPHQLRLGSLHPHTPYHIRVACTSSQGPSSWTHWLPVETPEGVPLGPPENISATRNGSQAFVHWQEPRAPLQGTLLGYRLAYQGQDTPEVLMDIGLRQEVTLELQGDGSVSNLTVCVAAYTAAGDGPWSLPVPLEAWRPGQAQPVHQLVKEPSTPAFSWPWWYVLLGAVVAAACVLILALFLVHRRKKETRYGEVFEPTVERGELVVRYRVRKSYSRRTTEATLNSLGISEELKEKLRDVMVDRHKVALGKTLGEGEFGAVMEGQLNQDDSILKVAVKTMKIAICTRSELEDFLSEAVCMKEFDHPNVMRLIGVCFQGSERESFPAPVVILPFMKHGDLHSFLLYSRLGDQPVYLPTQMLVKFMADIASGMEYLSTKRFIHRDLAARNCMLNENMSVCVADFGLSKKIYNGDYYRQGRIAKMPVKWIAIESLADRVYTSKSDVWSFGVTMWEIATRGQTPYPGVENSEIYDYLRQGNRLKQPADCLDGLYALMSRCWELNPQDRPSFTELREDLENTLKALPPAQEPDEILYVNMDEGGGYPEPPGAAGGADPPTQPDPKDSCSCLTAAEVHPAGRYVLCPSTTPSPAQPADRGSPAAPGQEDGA
The target of assay [9] is T2, Histone-lysine N-methyltransferase SMYD3 (Homo sapiens) (UniProt Q9H7B4).
T2 sequence (whole entry): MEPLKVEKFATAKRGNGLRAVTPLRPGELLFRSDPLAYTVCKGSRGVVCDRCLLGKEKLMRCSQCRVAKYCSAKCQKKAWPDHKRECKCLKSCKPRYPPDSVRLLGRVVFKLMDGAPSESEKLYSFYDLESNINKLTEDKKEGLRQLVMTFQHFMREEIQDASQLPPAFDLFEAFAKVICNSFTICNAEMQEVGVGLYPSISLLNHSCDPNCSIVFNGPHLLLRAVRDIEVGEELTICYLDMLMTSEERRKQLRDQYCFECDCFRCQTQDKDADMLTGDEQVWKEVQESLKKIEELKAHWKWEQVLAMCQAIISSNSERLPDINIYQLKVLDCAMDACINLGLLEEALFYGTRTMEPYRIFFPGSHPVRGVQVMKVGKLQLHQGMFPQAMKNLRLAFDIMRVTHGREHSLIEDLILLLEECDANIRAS
As to conditions: at 1 µM.

Assay [10] has as its target DNA (cytosine-5)-methyltransferase 3B (Homo sapiens) (UniProt Q9UBC3). In words: Selectivity interaction (Methyltransferase screen (radiometric assays, panel of 8 PRMTs, 21 protein lysine methyltransferases, 3 DNA methyltransferases, and one RNA methyltransferase)) EUB0000272b DNMT3B.
Assay [11] has as its target Tyrosine-protein kinase Lyn (Homo sapiens, UniProt P07948). As to the kind of experiment: Selectivity interaction (ActivX KiNativ screen (kinase selectivity in THP-1 cell lysates)) EUB0000639a LYN. Format: subcellular. As to conditions: lysate.
Assay [12] addresses Tyrosine-protein kinase Fes/Fps (Homo sapiens) (UniProt P07332). In words: Selectivity interaction (Kinase panel (Invitrogen)) EUB0000639a FES. The note with it: at 200 nM.
Assay [13] deals with Protein kinase C gamma type (Homo sapiens) (UniProt P05129). In words: Selectivity interaction (Kinase panel (Invitrogen)) EUB0000639a PRKCG. As to conditions: at 200 nM.
Assay [14] addresses Phosphatidylinositol 4-kinase beta (Homo sapiens, UniProt Q9UBF8). As to the kind of experiment: Selectivity interaction (ActivX KiNativ screen (kinase selectivity in THP-1 cell lysates)) EUB0000639a PI4KB. Format: subcellular. As to conditions: lysate, at 1 µM.
The target in assay [15] is T3, Serine/threonine-protein kinase Chk1 (Homo sapiens) (UniProt O14757).
T3 sequence (whole entry): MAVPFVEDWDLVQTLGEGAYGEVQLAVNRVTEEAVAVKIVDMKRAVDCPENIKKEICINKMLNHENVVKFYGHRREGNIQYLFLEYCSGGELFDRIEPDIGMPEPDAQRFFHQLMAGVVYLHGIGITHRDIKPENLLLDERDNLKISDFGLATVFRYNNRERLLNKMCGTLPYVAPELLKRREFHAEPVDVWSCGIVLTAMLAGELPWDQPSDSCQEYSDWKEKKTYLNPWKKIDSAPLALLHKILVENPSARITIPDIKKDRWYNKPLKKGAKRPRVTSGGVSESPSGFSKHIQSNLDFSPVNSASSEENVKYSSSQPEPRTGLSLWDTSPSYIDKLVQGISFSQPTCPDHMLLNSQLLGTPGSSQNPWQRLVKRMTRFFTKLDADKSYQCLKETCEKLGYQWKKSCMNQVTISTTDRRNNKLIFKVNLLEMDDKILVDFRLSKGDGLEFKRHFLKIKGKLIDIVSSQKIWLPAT
As to the kind of experiment: Selectivity interaction (ActivX KiNativ screen (kinase selectivity in THP-1 cell lysates)) EUB0000639a CHEK1. Format: subcellular. The note with it: lysate.

The nature of assay [16]: Selectivity interaction (NMDA Channel site assay : rat brain cortex ) EUB0000877a GRIN1.
In assay [17] the target is Bone morphogenetic protein receptor type-1B (Homo sapiens, UniProt O00238). In words: Selectivity interaction (KinomeScan (DiscoverX)) EUB0001619a BMPR1B. As to conditions: at 1 µM.

pIC50: −log10 of the molar value.

Chain of Tyrosine-protein kinase Lyn (P07948 2-512 limits assumed): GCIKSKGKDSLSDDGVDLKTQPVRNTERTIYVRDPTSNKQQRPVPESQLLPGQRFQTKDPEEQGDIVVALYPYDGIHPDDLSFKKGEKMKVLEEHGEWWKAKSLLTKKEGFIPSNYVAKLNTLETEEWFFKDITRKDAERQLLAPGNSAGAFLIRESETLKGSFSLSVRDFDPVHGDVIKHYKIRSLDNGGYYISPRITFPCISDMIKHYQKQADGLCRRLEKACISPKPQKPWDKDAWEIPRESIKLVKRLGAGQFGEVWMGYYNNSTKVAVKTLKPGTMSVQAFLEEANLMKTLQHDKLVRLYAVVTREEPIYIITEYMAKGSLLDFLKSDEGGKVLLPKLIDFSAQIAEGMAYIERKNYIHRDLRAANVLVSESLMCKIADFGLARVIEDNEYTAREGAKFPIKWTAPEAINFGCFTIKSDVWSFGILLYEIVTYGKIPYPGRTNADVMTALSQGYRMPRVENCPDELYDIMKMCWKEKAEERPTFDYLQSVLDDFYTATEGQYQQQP
Chain of Cyclin-dependent kinase 17 (Homo sapiens) (Q00537 whole entry, looked up): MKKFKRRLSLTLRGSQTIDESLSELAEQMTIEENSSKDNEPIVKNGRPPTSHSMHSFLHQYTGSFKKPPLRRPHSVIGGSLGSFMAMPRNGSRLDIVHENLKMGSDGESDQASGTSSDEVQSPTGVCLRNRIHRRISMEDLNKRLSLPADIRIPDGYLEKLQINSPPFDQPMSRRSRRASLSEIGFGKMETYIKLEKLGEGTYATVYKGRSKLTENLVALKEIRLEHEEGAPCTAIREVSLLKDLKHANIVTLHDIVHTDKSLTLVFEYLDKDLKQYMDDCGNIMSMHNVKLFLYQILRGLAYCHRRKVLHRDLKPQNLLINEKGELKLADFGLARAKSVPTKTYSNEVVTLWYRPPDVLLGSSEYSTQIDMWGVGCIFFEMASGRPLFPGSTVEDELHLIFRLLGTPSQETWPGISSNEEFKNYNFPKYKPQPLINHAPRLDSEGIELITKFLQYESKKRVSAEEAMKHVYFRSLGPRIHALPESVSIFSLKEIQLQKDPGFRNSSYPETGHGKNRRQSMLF

Regarding `Cc1ccc(-c2ccc3c(ccc4sc5c(c43)NC[C@@H](C)NC5=O)n2)cn1`, the % of inhibition in [1] worked out at 32%.
In assay [2], `CN(C)C/C=C/C(=O)Nc1ccc(C(=O)N2CCCC(Nc3ncc(Cl)c(-c4c[nH]c5ccccc45)n3)C2)cc1` (configuration not stated) showed a % of control of 90%.
The molecule `CC(=O)Nc1cccc(-n2c(=O)n(C3CC3)c(=O)c3c(Nc4ccc(I)cc4F)n(C)c(=O)c(C)c32)c1` returned a % of control in assay [3] of 109%.
`COc1cc(Nc2nc(C)cc(-c3cnn4nc(OC)ccc34)n2)cc(C(F)(F)F)c1` registered a % of control in [4] of 79%.
The molecule `Cc1cc(F)c(C(=O)Nc2cccc(-c3nncn3C(C)C)n2)cc1-n1cnc(C2CC2)c1` registered a % of control in [5] of 100%.
In the case of `C=CC(=O)Nc1cc(-n2c(=O)ccc3cnc4ccc(-c5ccc(NS(C)(=O)=O)cc5)cc4c32)ccc1C`, the % of control in assay [6] (at 1 µM) and in assay [6] (at 10 µM) was 100% throughout.
As for `O=C(NOC[C@H](O)CO)c1ccc(F)c(F)c1Nc1ccc(I)cc1F`, the values for the % of control in assay [7] and in [8] were 100% and 83%, respectively.
Regarding `CNCCN1CCC(c2cc(CN(C)C(=O)c3cccc(Oc4ccccc4)c3)ccn2)CC1`, in assay [9], the % activity is greater than 85%.
For the molecule `Cc1cc(C)cc([C@H]2c3cc(C)ccc3NC(=O)CN2C(=O)c2ccc(Br)s2)c1`, the % of activity in [10] (at 1 µM) stood at 97.3%; in assay [10] (at 10 µM), 102%.
Turning to `CC[C@@H]1[C@H](F)C(=O)N[C@@H]1COc1nccc2cc(C(N)=O)c(OC)cc12` [ZIMLOVISERTIB], the % of inhibition in assay [11] (at 0.01 µM) is 12.8%; in assay [11] (at 0.04 µM), -4.2%; in [11] (at 0.2 µM), 5.4%; in [11] (at 1 µM), 6%; in [11] (at 5 µM), 2.2%; in [12], 1.51%. Moreover, the % of inhibition in [13] is 12.1%; in assay [14], -19.1%; in assay [15] (at 0.01 µM) it was -7.6%; in [15] (at 0.04 µM), 11.8%; in assay [15] (at 0.2 µM), -8.5%; in assay [15] (at 1 µM) it was 0.6%. Further, the % of inhibition in assay [15] (at 5 µM) was -18.5%.
`CCC(=O)N1CC[C@H](Nc2ncnc3c2CN(c2cnc(OC)c(C(F)(F)F)c2)CC3)C1` [LENIOLISIB] had a pIC50 in [16] of less than 4.52.
As for `N#Cc1cccc(-c2c[nH]c3ncnc(N4CCOCC4)c23)c1`, in assay [17], the % of control came out at 31%.
